Patent US11220509B2, “Substituted imidazo[1,2-c]pyrimidines as PRC2 inhibitors” (Mirati Therapeutics, Inc., priority 2018, dated 2022)
Like-named read-outs stand apart in the source and are kept apart here.

Assays:
[1] = target: purified human, His-tagged PRC2 complex (Homo sapiens (Human), UniProt O75530); assay: Hot Spot HMT assay: inhibition of PRC2 enzymatic activity (transfer of tritiated methyl from SAM to core histone H3); format: biochemical; settings: 10 nM PRC2 complex, 0.05 mg/ml core histone H3, 1 uM 3H-SAM, 1 hr at 30° C.; read-out: IC50, Inhibition of PRC2-mediated Enzymatic Activity
Chain of purified human, His-tagged PRC2 complex (Q15910 whole entry): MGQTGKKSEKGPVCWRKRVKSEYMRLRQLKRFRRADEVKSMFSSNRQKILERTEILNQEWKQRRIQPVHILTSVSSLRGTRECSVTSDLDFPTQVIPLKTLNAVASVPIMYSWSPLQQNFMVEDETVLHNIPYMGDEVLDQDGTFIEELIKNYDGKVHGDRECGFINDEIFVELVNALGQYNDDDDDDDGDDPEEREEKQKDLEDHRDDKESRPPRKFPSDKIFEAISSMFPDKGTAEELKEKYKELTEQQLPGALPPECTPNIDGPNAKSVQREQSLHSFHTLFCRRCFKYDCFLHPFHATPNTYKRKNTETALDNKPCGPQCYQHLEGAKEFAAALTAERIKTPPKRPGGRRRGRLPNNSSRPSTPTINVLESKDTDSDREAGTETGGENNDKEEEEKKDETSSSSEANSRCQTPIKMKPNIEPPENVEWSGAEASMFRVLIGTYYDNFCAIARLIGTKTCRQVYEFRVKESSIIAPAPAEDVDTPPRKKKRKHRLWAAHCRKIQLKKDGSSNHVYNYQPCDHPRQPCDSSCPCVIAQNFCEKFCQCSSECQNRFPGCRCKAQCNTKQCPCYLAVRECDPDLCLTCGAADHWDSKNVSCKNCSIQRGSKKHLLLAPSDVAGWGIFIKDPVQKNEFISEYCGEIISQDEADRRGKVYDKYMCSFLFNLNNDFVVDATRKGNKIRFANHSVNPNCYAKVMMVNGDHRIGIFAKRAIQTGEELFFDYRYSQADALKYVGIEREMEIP
Chain of purified human, His-tagged PRC2 complex (O75530 whole entry): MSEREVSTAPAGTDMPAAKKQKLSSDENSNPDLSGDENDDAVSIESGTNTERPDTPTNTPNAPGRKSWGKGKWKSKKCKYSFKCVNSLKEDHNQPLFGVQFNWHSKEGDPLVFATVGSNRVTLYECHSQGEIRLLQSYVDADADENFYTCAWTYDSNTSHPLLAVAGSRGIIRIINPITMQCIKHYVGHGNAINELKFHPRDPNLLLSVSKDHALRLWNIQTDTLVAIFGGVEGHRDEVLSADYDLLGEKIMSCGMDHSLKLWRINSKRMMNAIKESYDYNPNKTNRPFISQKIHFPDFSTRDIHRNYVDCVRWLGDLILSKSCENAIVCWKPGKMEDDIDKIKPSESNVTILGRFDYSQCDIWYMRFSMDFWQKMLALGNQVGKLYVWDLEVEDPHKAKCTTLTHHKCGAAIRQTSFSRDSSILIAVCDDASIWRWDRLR
Chain of purified human, His-tagged PRC2 complex (Q15022 whole entry partner): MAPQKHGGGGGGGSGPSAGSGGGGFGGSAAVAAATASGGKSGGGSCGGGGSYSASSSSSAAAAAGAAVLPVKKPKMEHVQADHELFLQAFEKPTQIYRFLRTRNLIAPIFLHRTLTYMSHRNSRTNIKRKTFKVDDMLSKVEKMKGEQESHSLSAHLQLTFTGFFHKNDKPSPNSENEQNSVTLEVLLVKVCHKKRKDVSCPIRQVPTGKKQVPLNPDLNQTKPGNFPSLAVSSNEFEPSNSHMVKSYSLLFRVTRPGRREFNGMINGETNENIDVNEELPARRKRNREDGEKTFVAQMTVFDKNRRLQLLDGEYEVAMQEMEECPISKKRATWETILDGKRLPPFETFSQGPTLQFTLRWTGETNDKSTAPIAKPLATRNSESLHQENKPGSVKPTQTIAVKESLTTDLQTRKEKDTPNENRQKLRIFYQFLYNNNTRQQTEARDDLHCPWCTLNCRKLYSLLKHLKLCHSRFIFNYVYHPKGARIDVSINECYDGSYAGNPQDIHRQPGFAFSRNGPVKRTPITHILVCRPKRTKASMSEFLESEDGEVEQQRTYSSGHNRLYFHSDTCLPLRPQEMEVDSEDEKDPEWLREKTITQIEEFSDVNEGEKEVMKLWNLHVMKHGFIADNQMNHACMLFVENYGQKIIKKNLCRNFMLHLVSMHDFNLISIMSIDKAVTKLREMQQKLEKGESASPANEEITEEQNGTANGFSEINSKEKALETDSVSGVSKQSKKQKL
Chain of purified human, His-tagged PRC2 complex (Q6ZN18 whole entry partner): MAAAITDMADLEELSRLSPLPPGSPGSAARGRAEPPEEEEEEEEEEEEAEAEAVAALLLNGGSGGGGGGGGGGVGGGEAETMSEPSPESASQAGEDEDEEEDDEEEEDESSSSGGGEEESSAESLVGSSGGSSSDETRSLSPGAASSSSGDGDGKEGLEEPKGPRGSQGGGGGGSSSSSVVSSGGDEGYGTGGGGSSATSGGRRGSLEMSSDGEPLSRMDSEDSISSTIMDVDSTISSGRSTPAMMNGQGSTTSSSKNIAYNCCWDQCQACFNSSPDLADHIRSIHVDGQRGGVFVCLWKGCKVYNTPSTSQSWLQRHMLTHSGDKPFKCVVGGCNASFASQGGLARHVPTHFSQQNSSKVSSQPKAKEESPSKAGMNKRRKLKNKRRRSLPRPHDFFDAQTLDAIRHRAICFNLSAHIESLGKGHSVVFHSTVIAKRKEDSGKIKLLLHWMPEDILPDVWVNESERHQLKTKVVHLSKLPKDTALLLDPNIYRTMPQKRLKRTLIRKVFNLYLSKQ
Chain of purified human, His-tagged PRC2 complex (Q09028 whole entry partner): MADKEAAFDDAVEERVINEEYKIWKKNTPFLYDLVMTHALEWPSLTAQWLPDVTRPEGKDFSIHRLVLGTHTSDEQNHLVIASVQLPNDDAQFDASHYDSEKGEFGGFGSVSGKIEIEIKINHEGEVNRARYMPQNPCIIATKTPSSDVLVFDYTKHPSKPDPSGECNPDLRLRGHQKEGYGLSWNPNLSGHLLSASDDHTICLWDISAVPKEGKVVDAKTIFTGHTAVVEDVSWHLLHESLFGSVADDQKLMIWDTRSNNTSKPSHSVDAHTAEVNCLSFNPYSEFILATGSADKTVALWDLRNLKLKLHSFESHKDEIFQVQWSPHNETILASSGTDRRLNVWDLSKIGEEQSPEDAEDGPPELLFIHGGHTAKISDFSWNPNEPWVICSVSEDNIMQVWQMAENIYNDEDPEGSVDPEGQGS
Description: The assay uses purified human, His-tagged PRC2 complex, including N-terminal His-tagged EZH2 enzyme. N-terminal Flag-tagged embryonic ectoderm development protein (EED), N-terminal His-tagged suppressor of zeste 12 (SUZ12), N-terminal His-tagged AEBP2, and N-terminal His-tagged RbAp48. In this assay, the transfer of the tritiated methyl group from radiolabeled S-adenosyl methionine (SAM) to purified core histone protein by EZH2 is quantitated after filtration to determine the activity of the core PRC2 complex in the presence and absence of compound.
The initial starting concentration for the serial dilutions of each compound was 1.0 μM. […] SAH (S-(5-adenosyl)-L-homocysteine) was used as a positive control for assay validation.
An aliquot of each serial dilution of test compound was added to deep 384 well plate using Acoustic Technology instrument (Echo 550, LabCyte) containing reaction buffer (50 mM Tris-HCl (pH 8)), 0.01% Brij35, 1 mM EDTA, 1 mM DTT, 1 mM PMSF and 1% DMSO), 10 nM purified PRC2 complex and 0.05 mg/ml core histone H3 in a 5 μl volume. The reaction was mixed gently and then pre-incubated for 20 min at 30° C. The enzymatic reaction was initiated by adding 1 uM S-Adenosyl-L-[methyl-^3H]methionine and incubated for 1 hr at 30° C. After 1 hr, the reaction product was detected using a filter binding method and the amount of tritiated H3 core histone was quantitated using a scintillation counter. […] Key: A=<100 nM; B=>100 nM-<500 nM; and C=>500 nM.

[2] = tested on: Karpas 422 cells expressing mutant EZH2 (Y641N); assay: Karpas 422 cell viability, CTG (Cell Titre Glo) assay; format: cell-based, human; settings: Day 4, 7 or 11 measured, time point of the table not stated, read-out: IC50 (nM), Inhibiting Proliferation of Cells Expressing an Activating Mutant Form of EZH2
Experimental: Karpas 422 cell line is a human B cell non-Hodgkin's lymphoma cell line established from a patient having DLBCL. This EZH2 heterozygotic cell line expresses a mutant form of EZH2 enzyme (Y641N) that increases histone H3 methylation and this mutation has been implicated in the tumorgenesis of lymphomas, such as DLBCL.
Karpas 422 cells (PHE cat no., 06101702) were cultured in RPMI medium supplemented with 20% fetal bovine serum and 1% penicillin/l % streptomycin and plated at a density of 1000 cells/90 μl/well in 96 well white assay plates. A dose response curve for compounds of the present invention was determined by adding a 10 μl aliquot of stock solutions of varying concentrations of compounds to the same medium in each well, over a concentration range of 10 μM using 3-fold dilutions to a final concentration of 1.5 nM. The plates were incubated at 37° C. for predetermined time periods, Day 4, Day 7, or Day 11, and the viability of the cells was measured using a CTG assay kit (Cell Titre Glo; Promega cat. no G7573) on Day 4 and Day 7 in accordance with the manufacturer's instructions.
For the viability assay for the Day 11 plates, the plates were subjected to centrifugation at 1100 rpm for five minutes on Day 7 and the supernatant was removed by aspiration. The cells were resuspended in 90 μl aliquot of the appropriate growth medium lacking the compound followed by addition of 10 μl of a 10× stock of the same compound at the same concentration. The viability of the Day 11 cells was measured using the CTG assay kit described above in accordance with the manufacturer's instructions. The IC50 values for each compound at each predetermined time point were calculated using Graph pad PRISM software and the results are shown in Table 15. A=≤250 nM; B=<250 nM-≤500 nM; and C=>500 nM.

[3] = tested on: histone H3 Lys27 trimethylation in Pfeiffer cells expressing mutant EZH2 (A677G); assay: Tri-Methyl Histone H3 (Lys 27) sandwich ELISA in Pfeiffer cells; format: cell-based; settings: Homo sapiens, 96 hours incubation, read-out: IC50 (nM), Inhibition of EZH2-mediated Histone H3 Trimethylation
Description: The Pfeiffer cell line was established from a […] from a patient having metastatic diffuse large B-cell lymphoma (DLBCL). This cell line expresses a mutant form of the EZH2 enzyme (A677G) that results in enhanced EZH2 activity leading to increased methylation of histone H3 Lys27. Increased trimethylation of histone H3 Lys27 is believed to be implicated in tumorgenesis and poor clinical prognosis in lymphomas (McCabe et al., (2012) Nature 492:108-112).
Inhibition of PRC2-mediated histone H3 methylation by compounds of Formula (I) was measured by ELISA using a Tri-Methyl Histone H3 (Lys 27) Sandwich ELISA Kit (Cell Signaling Tech #7866C) in accordance with the manufacturer's instructions. Briefly, Pfeiffer cells were cultured in RPMI medium supplemented with 10% fetal bovine serum and 1% penicillin and 1% streptoncin in 96 well culture plates at 37° C. to a density of 8000 cells/90 μl/well and the cells were harvested. A series of 3-fold serial dilutions of each test compound of Formula (I) were prepared in RPMI medium and added to the cells at final concentrations ranging from 1 μM to 0.15 nM. The plates were incubated at 37° C. for 96 hours.
After incubation, the cells were pelleted by centrifugation in a pre-cooled 4° C. rotor at 1,100 rpm for 10 min and the supernatant was removed by aspiration. The cell pellet was resuspended in 55 μl of Lysis Buffer (0.4M HCl) and incubated on ice with periodic shaking for 30 minutes. The lysed cells were subjected to centrifugation at 4,200 rpm for 10 min at 4° C. and the supernatant containing acid-soluble proteins was collected and the remainder discarded. The acid-soluble proteins were brought to a neutral pH by the addition of 20 μl of Neutralization Buffer (1 M Sodium phosphate, dibasic (pH 12.5), 2.5 mM DTT and 1 mM PMSF) and the neutralized lysates were analyzed by ELISA.
A 65 μl aliquot of each cell lysate was added to a well of a microwell strip, the microwells were sealed using tape and incubated either at 37° C. for two hours or at 4° C. overnight. After incubation, the tape was removed at the microwells were washed four times using 200 μl of 1× Wash Buffer. To each washed microwell, a 100 μl aliquot of an anti-trimethyl histone H3 Lys27 Detection Antibody solution was added and the microwells were incubated at 37° C. for one hour. The Detection Antibody solution was removed by aspiration and the wells were washed four times each using 200 μl of 1× Wash Buffer.
A 100 μl aliquot of an HRP-linked secondary antibody was added to each well, the wells were sealed with tape and incubated at 37° C. for 30 min. The HRP-linked secondary antibody solution was removed by aspiration and the wells were washed four times using 200 μl of 1× Wash Buffer. A 100 μl aliquot of a TMB substrate was added to each well, the wells were sealed with tape and incubated at 37° C. for 10 min or 25° C. for 30 min. The reaction was stopped by the addition of 100 μl aliquot of a STOP solution and the plate was shaken briefly. The degree of histone H3 trimethylation was determined using a spectrophotometric readout by measuring the absorbance at 450 nm and then calculating the amount of trimethylated histone H3. A=≤100 nM; B=>100 nM-≤500 nM; C=>500 nM and N.D.=not determined.

| Structure (SMILES) | IC50 [3] [nM] | IC50 [2] [nM] | IC50 [1] [nM] | IC50 ([2]; Homo sapiens, 96 h) [nM] |
| --- | --- | --- | --- | --- |
| Cc1cc(-c2cnc(NCc3c(F)ccc4occc34)n3cc(C#N)nc23)n(C)n1 [Example 28] | – | – | < 100 | 250 to 500 |
| N#Cc1cn2c(NCc3c(F)ccc4c3CCO4)ncc(-c3cnc(C4CC4)nc3)c2n1 [Example 70] | < 100 | – | < 100 | ≤ 250 |
| Cc1nc(CN(C)C)ccc1-c1cnc(NCc2c(F)ccc3c2CCO3)n2cc(C#N)nc12 [Example 152] | – | ≤ 250 | – | – |
| [2H]C([2H])(Nc1ncc(-c2ccc(CN(C)C)cc2)c2nc(C#N)cn12)c1c(F)ccc2c1CCO2 [Example 165, 8-(4-((dimethylamino)methyl)phenyl)-5-(((5-fluoro-2,3-dihydrobenzofuran-4-yl)methyl-d2)amino)imidazo[1,2-c]pyrimidine-2-carbonitrile] | 100 to 500 | – | – | ≤ 250 |
| Cc1cc(-c2cnc(NCc3c(F)ccc4c3OCO4)n3cc(C#N)nc23)n(C)n1 [Example 228, 8-(1,3-dimethyl-1H-pyrazol-5-yl)-5-(((5-fluorobenzo[d][1,3]dioxol-4-yl)methyl)amino)imidazo[1,2-c]pyrimidine-2-carbonitrile] | 100 to 500 | – | 100 to 500 | ≤ 250 |

The next lines start with results.

| IC50 [3] [nM] | IC50 [2] [nM] | Structure (SMILES) | IC50 [1] [nM] | IC50 ([2]; Homo sapiens, 96 h) [nM] |
| --- | --- | --- | --- | --- |
| < 100 | – | Cn1nc(C(=O)O)cc1-c1cnc(NCc2c(F)ccc3c2CCO3)n2cc(C#N)nc12 [Example 157, 5-(2-cyano-5-(((5-fluoro-2,3-dihydrobenzofuran-4-yl)methyl)amino)imidazo[1,2-c]pyrimidin-8-yl)-1-methyl-1H-pyrazole-3-carboxylic acid] | – | ≤ 250 |
| – | 250 to 500 | CN(C)C(=O)c1cc(-c2cnc(NCc3c(F)ccc4c3CCO4)n3cc(C#N)nc23)n(C)n1 [Example 170, 5-(2-cyano-5-(((5-fluoro-2,3-dihydrobenzofuran-4-yl)methyl)amino)imidazo[1,2-c]pyrimidin-8-yl)-N,N,1-trimethyl-1H-pyrazole-3-carboxamide] | – | – |
| 100 to 500 | – | Cc1cc(-c2cnc(NCc3c(F)ccc4c3CCO4)n3cc(C#N)nc23)ccn1 [Example 178, 5-(((5-fluoro-2,3-dihydrobenzofuran-4-yl)methyl)amino)-8-(2-methylpyridin-4-yl)imidazo[1,2-c]pyrimidine-2-carbonitrile] | 100 to 500 | ≤ 250 |
